Test results taken from patent publication US8759499B2, “Lipids for transfection of Eukaryotic cells” (Molecular Transfer, Inc., priority 2005, dated 2014).
Ends that are not written are not given here.

Test system: CHO-K1, NIH3T3, A549, Cos-7 and BE(2)C
Assay: Transfection with β-galactosidase reporter plasmid pCMV•SPORT-β-gal, "before" and "after" peptide protocols, β-gal activity (ONPG, OD 405)
Type: cell-based
Details: FIG. 1-5
Description: Transfection of CHO-K1, NIH3T3, A549, Cos-7 and BE(2)C with β-galactosidase reporter plasmid pCMV•SPORT-β-gal was carried out as follows:
Cells were plated in a 96-well plates with 100 μl of media containing 10% fetal calf serum the day before transfection such that a desired confluency (70%-95%) was achieved. The following day a transfection agent that includes a liposomal composition of the lipid DMTS (Dimyrstyl-tetrahydroxy-spermine) and DOPE (2:1 DMTS:DOPE) and DNA were mixed in Opti-MEM to form DNA/lipid complexes. Complexes were formed by adding various amounts of lipids (0.1 to 0.35 μl) to 100 μl of Opti-MEM. DNA (100 ng) was added to 100 μl Opti-MEM. The DNA and lipid solutions were then mixed to form DNA lipid complexes. The complexes were incubated for at least 15 minutes after which added to the DNA lipid complexes, was 20 μl of various amounts of a peptide having the sequence of a Prototypical Avian reovirus fusogenic peptide provided herein, as follows:
and incubated for 15 minutes to form a DNA/lipid/peptide complex. […] Total activity was determined by reading the OD at 405 using Bio-Rad Benchmark Microplate Spectrophotometer. […]
were added to the DNA mixture and incubated for 15 minutes. […] Total activity was determined by reading the OD at 405 using Bio-Rad Benchmark Microplate Spectrophotometer.

How did the “amount of lipid required to enhance transfection” value (DMTS:DOPE 2:1 liposomes plus peptide, before or after protocol) turn out when “RMPPGSCNGATAVFGNVHKKKKKKKKKKKKKKKK [peptide, Prototypical Avian reovirus fusogenic peptide with 16 lysine residues]” was run?
The value was “reduced”.

And the “effect of adding the peptide on transfection” value (DMTS:DOPE 2:1 liposomes, peptide added to DNA before lipid, or to DNA/lipid complex)?
The value was “enhancement of transfection”.
